Assay results reported in patent publication US9359303B2, “Octahydrobenzoisoquinoline modulators of dopamine receptors and uses therefor” (Purdue Research Foundation, priority 2009, dated 2016).

Tests used:
[1] = pKa used to separate acids by titration; assay type: physicochemical
Procedure: 4-(2,3-Dimethoxyphenyl)but-3-enoic acid (5). Recrystallized paraconic acid 4 (8.6 g, 0.032 mol) was placed into a one-neck round bottom flask and the solid was heated in a 180° C. oil bath for 6 h. Carbon dioxide could be observed bubbling out of the dark brown liquid. The reaction was cooled to room temperature and dissolved in CH2Cl2. The product and any unreacted starting material were extracted into 2 N NaOH (3×100 mL). The pKa of the butenoic acid is approximately 4.2, whereas the pKa of the paraconic acid is approximately 3.6, so the two compounds were separated by titration. The basic aqueous extract was carefully acidified with 2 N HCl, with monitoring by a calibrated pH meter. Once the pH reached 4.5, the solution started becoming slightly cloudy. The solution pH was adjusted to 4.0 and the aqueous solution was extracted with CH2Cl2. After extraction the pH of the aqueous layer increased to around 5 and the titration was repeated until there was no cloudiness at pH 4.0. The starting material was recovered by acidifying to pH 3.0 and extracting with CH2Cl2. The initial organic extracts were dried over Na2SO4, and evaporated under reduced pressure to yield pure 5 that solidified under reduced pressure as a yellow solid (4.7 g, 0.021 mol, 65.2%) that was used without further purification; mp 84-86° C. […]

D1 receptor = D1 receptor (Homo sapiens, UniProt P21728); conditions: reported; cited from earlier work
[2] = rodents and non-human primates; iv, sc, po; cited from earlier work
D2 receptor = D2 receptor (Homo sapiens, UniProt P14416); conditions: reported; cited from earlier work
D2-like receptor sites = D2-like receptor sites (Sus scrofa, UniProt A0ACM8QMZ9); experiment: Competitive binding, porcine striatal tissue, [3H]-spiperone (50 nM ketanserine present); conditions: porcine striatal membranes; read-out: Kd for D2-like receptor sites (receptor isotherm)
Chain of D2-like receptor sites (A0ACM8QMZ9 entry or part of it): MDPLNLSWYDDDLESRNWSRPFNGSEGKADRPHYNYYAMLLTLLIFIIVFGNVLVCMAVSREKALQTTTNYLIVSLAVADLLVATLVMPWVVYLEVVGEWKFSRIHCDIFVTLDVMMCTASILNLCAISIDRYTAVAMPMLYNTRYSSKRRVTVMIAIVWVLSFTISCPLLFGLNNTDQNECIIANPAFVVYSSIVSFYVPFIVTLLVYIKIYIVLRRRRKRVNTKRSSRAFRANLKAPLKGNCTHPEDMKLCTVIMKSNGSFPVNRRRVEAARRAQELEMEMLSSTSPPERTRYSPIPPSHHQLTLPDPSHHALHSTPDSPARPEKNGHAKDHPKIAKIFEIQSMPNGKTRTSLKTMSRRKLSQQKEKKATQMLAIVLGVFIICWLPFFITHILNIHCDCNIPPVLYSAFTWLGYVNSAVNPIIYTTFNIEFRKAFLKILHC
Procedure: Competitive Binding Experiments. Porcine striatal tissue is obtained from the Purdue Butcher Block and prepared as described in the literature. Striatal tissue is homogenized using a potter-type homogenizer, suspended in homogenization buffer (20 mM Hepes, 0.32 M sucrose, pH 7.4), and spun at 1,000 g for 10 minutes at 4° C. The pellet (P1) is discarded and supernatant is centrifuged at 30,000 g for 10 minutes at 4° C. The resultant pellet (P2) is resuspended in 50 mM Tris buffer (pH 7.4) by briefly using a Kinematica homogenizer, and then centrifuged at 30,000 g for 30 minutes at 4° C. This pellet is resuspended again in 50 mM Tris buffer, dispensed into 1 mL aliquots, and centrifuged for 10 min. at 13,000 g at 4° C. A BSA protein assay is used to determine the final weight of the pellets. Supernatant is aspirated and pellets are frozen at −80° C. until use.
Receptor and competitive binding experiments are performed as described in the literature. Pellets are resuspended (1 mL/mg) in receptor binding buffer (50 mM Hepes, 4 mM MgCl2, pH 7.4) and 75 μg protein is used per well. […] All binding experiments are incubated for 30 minutes at 37° C., and are terminated and counted in a similar fashion to the cAMP binding assays.
Data Analysis. […] Ki values are calculated from IC50 using the Cheng-Prusoff equation.

Chain of D1 receptor (P21728 whole entry): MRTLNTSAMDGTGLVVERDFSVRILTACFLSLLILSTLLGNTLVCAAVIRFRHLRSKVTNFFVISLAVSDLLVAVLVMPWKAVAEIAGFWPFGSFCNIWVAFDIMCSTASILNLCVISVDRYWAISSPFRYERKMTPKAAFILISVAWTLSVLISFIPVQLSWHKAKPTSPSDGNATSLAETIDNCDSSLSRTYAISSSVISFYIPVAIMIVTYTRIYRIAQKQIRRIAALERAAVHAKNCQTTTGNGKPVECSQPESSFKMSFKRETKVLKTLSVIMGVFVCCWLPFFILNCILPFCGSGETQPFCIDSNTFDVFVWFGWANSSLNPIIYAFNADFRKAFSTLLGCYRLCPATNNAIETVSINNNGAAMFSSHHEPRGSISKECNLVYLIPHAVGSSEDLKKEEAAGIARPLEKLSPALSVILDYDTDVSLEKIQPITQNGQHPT
Chain of D2 receptor (P14416 whole entry): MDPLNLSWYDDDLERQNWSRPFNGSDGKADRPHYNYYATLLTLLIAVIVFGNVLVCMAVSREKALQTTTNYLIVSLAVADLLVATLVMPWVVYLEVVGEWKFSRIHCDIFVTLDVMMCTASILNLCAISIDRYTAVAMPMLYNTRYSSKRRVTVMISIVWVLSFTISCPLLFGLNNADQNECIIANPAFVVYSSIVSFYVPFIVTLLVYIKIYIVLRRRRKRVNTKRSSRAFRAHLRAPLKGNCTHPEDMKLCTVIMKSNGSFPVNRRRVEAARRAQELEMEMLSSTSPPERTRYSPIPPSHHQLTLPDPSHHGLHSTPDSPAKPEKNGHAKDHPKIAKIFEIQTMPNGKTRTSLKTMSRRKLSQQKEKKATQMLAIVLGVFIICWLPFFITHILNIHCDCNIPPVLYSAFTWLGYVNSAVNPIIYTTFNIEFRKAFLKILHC

| SMILES | melting point | pKa [1] | further results |
| --- | --- | --- | --- |
| Cl.Oc1cc2c(cc1O)[C@@H]1c3ccccc3CN[C@H]1CC2 (racemic) [dihydrexidine, (±)-trans-10,11-dihydroxy-5,6,6a,7,8,12b-hexahydrobenzo[a]phenanthridine hydrochloride] | – | – | affinity for the D1 receptor (D1 receptor): 2.2 nM; plasma clearance [2]: cleared rapidly from plasma; affinity for the D2 receptor (D2 receptor): 183 nM |
| O=C(CCCN1CCC2(CC1)C(=O)NCN2c1ccccc1)c1ccc(F)cc1 [[3H]-spiperone] | – | – | Kd (D2-like receptor sites): 0.075 nM |
| Br.Oc1ccc2c(c1O)CC[C@H]1CCNC[C@H]21 (relative stereo) [Compound 2, Trans-1,2,3,4,4a,5,6,10b-octahydrobenzo[h]isoquinoline-7,8-diol HBr] | > 250 °C | – | – |

Continued, in another order:

| melting point | pKa [1] | SMILES | further results |
| --- | --- | --- | --- |
| > 250 °C | – | Br.Oc1ccc2c(c1O)CC(c1ccccc1)C1CCNCC21 (centres unmarked) [Compound 3, 5-Phenyl-1,2,3,4,4a,5,6,10b-octahydrobenzo[h]isoquinoline-7,8-diol HBr] | – |
| – | ~3.6 | COc1cccc(C2OC(=O)CC2C(=O)O)c1OC (centres unmarked) [Compound 4, 2-(2,3-Dimethoxyphenyl)-5-oxo-tetrahydrofuran-3-carboxylic acid] | – |
| – | ~4.2 | COc1cccc(C=CCC(=O)O)c1OC [Compound 5, 4-(2,3-Dimethoxyphenyl)but-3-enoic acid] | – |
